In ChEMBL document CHEMBL4619789, “RAF Kinases in Cancer: A Moving Target and Degradation Therapy” (ACS Med Chem Lett, 2020):

What was measured:
[1] = test system: A-375; experiment: Protac activity at E3 ubiquitin-protein ligase/B-raf V600E mutant in human A375 cells assessed as induction of B-raf V600E degradation measured after 72 hrs by Western cellular assay relative to control; format: cell-based
[2] = Protac activity at E3 ubiquitin-protein ligase/B-raf V600E mutant in human A375 cells assessed as induction of B-raf V600E degradation measured after 72 hrs by Western cellular assay; format: cell-based; settings: A-375, 72 h

Structure (SMILES)	%max [1]	DC50 [2]
Cc1ncsc1-c1ccc([C@H](CO)NC(=O)[C@@H]2C[C@@H](O)CN2C(=O)[C@@H](c2cc(N3CCC(N4CCN(c5ccc(-c6cnc7[nH]cc(C(=O)c8c(F)ccc(NS(=O)(=O)N9CC[C@@H](F)C9)c8F)c7c6)cc5)CC4)CC3)no2)C(C)C)cc1	> 70%	10 to 50 nM
Cc1ncsc1-c1ccc(CNC(=O)[C@@H]2C[C@@H](O)CN2C(=O)[C@@H](NC(=O)CN2CCN(CC3CCN(c4ccc(-c5cnc6[nH]cc(C(=O)c7c(F)ccc(NS(=O)(=O)N8CC[C@@H](F)C8)c7F)c6c5)cc4)CC3)CC2)C(C)(C)C)cc1	> 70%	< 10 nM
Cc1ncsc1-c1ccc(CNC(=O)[C@@H]2C[C@@H](O)CN2C(=O)[C@@H](NC(=O)CN2CCC(CN3CCN(c4ccc(-c5cnc6[nH]cc(C(=O)c7c(F)ccc(NS(=O)(=O)N8CC[C@@H](F)C8)c7F)c6c5)cc4)CC3)CC2)C(C)(C)C)cc1	> 70%	< 10 nM
Cc1ncsc1-c1ccc([C@H](C)NC(=O)[C@@H]2C[C@@H](O)CN2C(=O)[C@@H](NC(=O)CN2CCC(CN3CCN(c4ccc(-c5cnc6[nH]cc(C(=O)c7c(F)ccc(NS(=O)(=O)N8CC[C@@H](F)C8)c7F)c6c5)cc4)CC3)CC2)C(C)(C)C)cc1	> 70%	< 10 nM
O=C1CCC(N2Cc3cc(N4CC(N5CCN(c6ccc(-c7cnc8[nH]cc(C(=O)c9c(F)ccc(NS(=O)(=O)N%10CC[C@@H](F)C%10)c9F)c8c7)cc6)CC5)C4)ccc3C2=O)C(=O)N1 (some centres undefined)	< 70%	< 10 nM
O=C1CCC(N2Cc3cc(N4CCN(Cc5ccc(-c6cnc7[nH]cc(C(=O)c8c(F)ccc(NS(=O)(=O)N9CC[C@@H](F)C9)c8F)c7c6)cc5)CC4)ccc3C2=O)C(=O)N1 (some centres undefined)	> 70%	< 10 nM
O=C1CCC(N2Cc3cc(CCCN4CCC5(C4)CN(c4ccc(-c6cnc7[nH]cc(C(=O)c8c(F)ccc(NS(=O)(=O)N9CC[C@@H](F)C9)c8F)c7c6)cc4)C5)ccc3C2=O)C(=O)N1 (some centres undefined)	< 70%	< 10 nM
O=C1CCC(N2Cc3cc(N4CC[C@@H](N5CCN(c6ccc(-c7cnc8[nH]cc(C(=O)c9c(F)ccc(NS(=O)(=O)N%10CC[C@@H](F)C%10)c9F)c8c7)cc6)CC5)C4)ccc3C2=O)C(=O)N1 (some centres undefined)	< 70%	< 10 nM
Cc1ncsc1-c1ccc(CNC(=O)[C@@H]2C[C@@H](O)CN2C(=O)[C@@H](NC(=O)CN2CC(N3CCN(c4ccc(-c5cnc6[nH]cc(C(=O)c7c(F)ccc(NS(=O)(=O)N8CC[C@@H](F)C8)c7F)c6c5)cc4)CC3)C2)C(C)(C)C)cc1	> 70%	< 10 nM
O=C1CCC(N2Cc3cc(N4CC(OCC5CCN(c6ccc(-c7cnc8[nH]cc(C(=O)c9c(F)ccc(NS(=O)(=O)N%10CC[C@@H](F)C%10)c9F)c8c7)cc6)CC5)C4)ccc3C2=O)C(=O)N1 (some centres undefined)	< 70%	< 10 nM
Cc1ncsc1-c1ccc(CNC(=O)[C@@H]2C[C@@H](O)CN2C(=O)[C@@H](c2cc(OCCN3CCN(c4ccc(-c5cnc6[nH]cc(C(=O)c7c(F)ccc(NS(=O)(=O)N8CC[C@@H](F)C8)c7F)c6c5)cc4)CC3)no2)C(C)C)cc1	> 70%	< 10 nM
O=C1CCC(N2Cc3cc(/C=C/CN4CCN(c5ccc(-c6cnc7[nH]cc(C(=O)c8c(F)ccc(NS(=O)(=O)N9CC[C@@H](F)C9)c8F)c7c6)cc5)CC4)ccc3C2=O)C(=O)N1 (some centres undefined)	< 70%	< 10 nM
